Experimental data published in patent publication EP4122466A1 (priority 2021, dated 2023).
pEC50: −log10 of the molar value. Entries after “also recorded” stand apart in the source; their conditions may differ.

Key:
SARS-CoV-2 pseudovirus = format: cell-based
VSV*ΔG(Luc)-S virus = assay: organism not typed; format: cell-based
VSV.G virus = format: cell-based
[1] = system: Human Lung Tissue (HTL) cells
SARS-CoV-2 = conditions: cited from earlier work

SMILES	inhibition of virus infection (SARS-CoV-2 pseudovirus)	decrease in infection rate (VSV*ΔG(Luc)-S virus)	infection rate (VSV*ΔG(Luc)-S virus)	inhibition of the VSV.G virus (VSV.G virus)	cell death [1]	pEC50 (VSV*ΔG(Luc)-S virus)	in vitro activity against SARS-CoV-2 (SARS-CoV-2)
Cc1cccc(/C=N/Nc2cc(N3CCOCC3)nc(OCCc3ccccn3)n2)c1 [apilimod]	dose-dependent inhibition of virus infection	lower decrease in infection rate	50%	partially inhibit	–	–	–
CN1CCN(c2ccc(C(=O)Nc3n[nH]c4ccc(Cc5cc(F)cc(F)c5)cc34)c(NC3CCOCC3)c2)CC1 [entrectinib]	dose-dependent inhibition of virus infection	–	–	partially inhibit; also recorded: demonstrated an antiviral effect	without inducing significant cell death	> 6.00	–
Cc1ccc(NC(=O)c2ccc(CN3CCN(C)CC3)cc2)cc1Nc1nccc(-c2cccnc2)n1 [imatinib]	–	–	–	–	–	–	do not show antiviral efficacy
Cc1cn(-c2cc(NC(=O)c3ccc(C)c(Nc4nccc(-c5cccnc5)n4)c3)cc(C(F)(F)F)c2)cn1 [nilotinib]	dose-dependent inhibition of virus infection	–	–	partially inhibit	–	< 4.82	did show in vitro antiviral effect
